Experimental data as given in patent US8192962B2, “Processes for detecting toxic substances” (Daikin Industries, Ltd., priority 2001, dated 2012).

Test system: Unknown protein yeast genes
Assay: DNA chip mRNA expression in yeast, unknown protein yeast genes (Table 1)
Type: cell-based, Saccharomyces cerevisiae S288C
How it was run: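 S. cerevisiae S288C grown at 25° C in YPD were exposed in log phase for two hours to one toxic chemical at a growth-inhibiting, non-lethal concentration; untreated cells served as control. Poly(A) mRNA was reverse-transcribed with Cy3/Cy5-dUTP and hybridized to a whole-genome yeast DNA chip at 65° C for over 12 hours; values are fluorescence ratios versus untreated.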

Question: Which results are given for Oc1cc(Cl)c(Cl)cc1Cl [(6), 2,4,5-trichlorophenol]?
Answer: The level of expressed mRNA in the presence of chemical substance/The level of expressed mRNA in the absence of chemical substance (yeast gene YAL053W, incubated two hours with chemical substance): 1.1; The level of expressed mRNA in the presence of chemical substance/The level of expressed mRNA in the absence of chemical substance (yeast gene YBL048W): 2.0; The level of expressed mRNA in the presence of chemical substance/The level of expressed mRNA in the absence of chemical substance (yeast gene YBL107C): 1.1; The level of expressed mRNA in the presence of chemical substance/The level of expressed mRNA in the absence of chemical substance (yeast gene YDL072C, incubated two hours with chemical substance): 1.5; The level of expressed mRNA in the presence of chemical substance/The level of expressed mRNA in the absence of chemical substance (yeast gene YDL146W): 0.7; The level of expressed mRNA in the presence of chemical substance/The level of expressed mRNA in the absence of chemical substance (yeast gene YDL204W, incubated two hours with chemical substance): 5.6; The level of expressed mRNA in the presence of chemical substance/The level of expressed mRNA in the absence of chemical substance (yeast gene YDL222C, incubated two hours with chemical substance): 1.4; The level of expressed mRNA in the presence of chemical substance/The level of expressed mRNA in the absence of chemical substance (yeast gene YDR057W): 0.7; The level of expressed mRNA in the presence of chemical substance/The level of expressed mRNA in the absence of chemical substance (yeast gene YDR330W, incubated two hours with chemical substance): 2.3; The level of expressed mRNA in the presence of chemical substance/The level of expressed mRNA in the absence of chemical substance (yeast gene YDR411C, incubated two hours with chemical substance): 0.8; The level of expressed mRNA in the presence of chemical substance/The level of expressed mRNA in the absence of chemical substance (yeast gene YDR476C): 3.1; The level of expressed mRNA in the presence of chemical substance/The level of expressed mRNA in the absence of chemical substance (yeast gene YDR511W, incubated two hours with chemical substance): 2.0; The level of expressed mRNA in the presence of chemical substance/The level of expressed mRNA in the absence of chemical substance (yeast gene YDR545W, incubated two hours with chemical substance): 1.0; The level of expressed mRNA in the presence of chemical substance/The level of expressed mRNA in the absence of chemical substance (yeast gene YEL001C, incubated two hours with chemical substance): 1.3; The level of expressed mRNA in the presence of chemical substance/The level of expressed mRNA in the absence of chemical substance (yeast gene YER004W, incubated two hours with chemical substance): 1.2; The level of expressed mRNA in the presence of chemical substance/The level of expressed mRNA in the absence of chemical substance (yeast gene YER035W, incubated two hours with chemical substance): 0.9; The level of expressed mRNA in the presence of chemical substance/The level of expressed mRNA in the absence of chemical substance (yeast gene YER079W, incubated two hours with chemical substance): 1.5; The level of expressed mRNA in the presence of chemical substance/The level of expressed mRNA in the absence of chemical substance (yeast gene YER106W, incubated two hours with chemical substance): 1.1; The level of expressed mRNA in the presence of chemical substance/The level of expressed mRNA in the absence of chemical substance (yeast gene YER158C, incubated two hours with chemical substance): 0.7; The level of expressed mRNA in the presence of chemical substance/The level of expressed mRNA in the absence of chemical substance (yeast gene YER163C, incubated two hours with chemical substance): 2.0; The level of expressed mRNA in the presence of chemical substance/The level of expressed mRNA in the absence of chemical substance (yeast gene YER175C, incubated two hours with chemical substance): 0.8; The level of expressed mRNA in the presence of chemical substance/The level of expressed mRNA in the absence of chemical substance (yeast gene YFL006W, incubated two hours with chemical substance): 1.2; The level of expressed mRNA in the presence of chemical substance/The level of expressed mRNA in the absence of chemical substance (yeast gene YFL010C, incubated two hours with chemical substance): 1.9; The level of expressed mRNA in the presence of chemical substance/The level of expressed mRNA in the absence of chemical substance (yeast gene YFL024C): 2.0; The level of expressed mRNA in the presence of chemical substance/The level of expressed mRNA in the absence of chemical substance (yeast gene YFL032W, incubated two hours with chemical substance): 0.6; The level of expressed mRNA in the presence of chemical substance/The level of expressed mRNA in the absence of chemical substance (yeast gene YFL046W): 0.7; The level of expressed mRNA in the presence of chemical substance/The level of expressed mRNA in the absence of chemical substance (yeast gene YGL037C, incubated two hours with chemical substance): 1.3; The level of expressed mRNA in the presence of chemical substance/The level of expressed mRNA in the absence of chemical substance (yeast gene YGL047W, incubated two hours with chemical substance): 1.5; The level of expressed mRNA in the presence of chemical substance/The level of expressed mRNA in the absence of chemical substance (yeast gene YGL053W, incubated two hours with chemical substance): 2.7; The level of expressed mRNA in the presence of chemical substance/The level of expressed mRNA in the absence of chemical substance (yeast gene YGL059W): 0.7; The level of expressed mRNA in the presence of chemical substance/The level of expressed mRNA in the absence of chemical substance (yeast gene YGL121C): 9.8; The level of expressed mRNA in the presence of chemical substance/The level of expressed mRNA in the absence of chemical substance (yeast gene YGL199C, incubated two hours with chemical substance): 0.7; The level of expressed mRNA in the presence of chemical substance/The level of expressed mRNA in the absence of chemical substance (yeast gene YGR024C): 0.7; The level of expressed mRNA in the presence of chemical substance/The level of expressed mRNA in the absence of chemical substance (yeast gene YGR101W, incubated two hours with chemical substance): 0.9; The level of expressed mRNA in the presence of chemical substance/The level of expressed mRNA in the absence of chemical substance (yeast gene YGR110W): 0.9; The level of expressed mRNA in the presence of chemical substance/The level of expressed mRNA in the absence of chemical substance (yeast gene YGR130C, incubated two hours with chemical substance): 0.9; The level of expressed mRNA in the presence of chemical substance/The level of expressed mRNA in the absence of chemical substance (yeast gene YGR154C, incubated two hours with chemical substance): 1.4; The level of expressed mRNA in the presence of chemical substance/The level of expressed mRNA in the absence of chemical substance (yeast gene YGR221C, incubated two hours with chemical substance): 3.0; The level of expressed mRNA in the presence of chemical substance/The level of expressed mRNA in the absence of chemical substance (yeast gene YHL042W): 0.7; The level of expressed mRNA in the presence of chemical substance/The level of expressed mRNA in the absence of chemical substance (yeast gene YHR029C): 2.7; The level of expressed mRNA in the presence of chemical substance/The level of expressed mRNA in the absence of chemical substance (yeast gene YHR138C, incubated two hours with chemical substance): 3.8; The level of expressed mRNA in the presence of chemical substance/The level of expressed mRNA in the absence of chemical substance (yeast gene YHR199C, incubated two hours with chemical substance): 1.1; The level of expressed mRNA in the presence of chemical substance/The level of expressed mRNA in the absence of chemical substance (yeast gene YIL023C, incubated two hours with chemical substance): 0.9; The level of expressed mRNA in the presence of chemical substance/The level of expressed mRNA in the absence of chemical substance (yeast gene YIL041W, incubated two hours with chemical substance): 1.0; The level of expressed mRNA in the presence of chemical substance/The level of expressed mRNA in the absence of chemical substance (yeast gene YIL087C, incubated two hours with chemical substance): 4.1; The level of expressed mRNA in the presence of chemical substance/The level of expressed mRNA in the absence of chemical substance (yeast gene YJL057C, incubated two hours with chemical substance): 1.4; The level of expressed mRNA in the presence of chemical substance/The level of expressed mRNA in the absence of chemical substance (yeast gene YJL066C, incubated two hours with chemical substance): 1.4; The level of expressed mRNA in the presence of chemical substance/The level of expressed mRNA in the absence of chemical substance (yeast gene YJL082W, incubated two hours with chemical substance): 0.2; The level of expressed mRNA in the presence of chemical substance/The level of expressed mRNA in the absence of chemical substance (yeast gene YJL144W): 1.7; The level of expressed mRNA in the presence of chemical substance/The level of expressed mRNA in the absence of chemical substance (yeast gene YJL151C, incubated two hours with chemical substance): 2.2; The level of expressed mRNA in the presence of chemical substance/The level of expressed mRNA in the absence of chemical substance (yeast gene YJL152W, incubated two hours with chemical substance): 1.5; The level of expressed mRNA in the presence of chemical substance/The level of expressed mRNA in the absence of chemical substance (yeast gene YJL161W, incubated two hours with chemical substance): 8.0; The level of expressed mRNA in the presence of chemical substance/The level of expressed mRNA in the absence of chemical substance (yeast gene YJL163C): 2.8; The level of expressed mRNA in the presence of chemical substance/The level of expressed mRNA in the absence of chemical substance (yeast gene YJL171C, incubated two hours with chemical substance): 2.7; The level of expressed mRNA in the presence of chemical substance/The level of expressed mRNA in the absence of chemical substance (yeast gene YJR008W, incubated two hours with chemical substance): 2.2; The level of expressed mRNA in the presence of chemical substance/The level of expressed mRNA in the absence of chemical substance (yeast gene YJR054W, incubated two hours with chemical substance): 0.7; The level of expressed mRNA in the presence of chemical substance/The level of expressed mRNA in the absence of chemical substance (yeast gene YKL071W): 18.6
